This assay has as its target T1, Human Platelet Receptor (Homo sapiens, UniProt P25105).
T1 construct: tissue Lifesource, Inc. (Glenview, Ill.); host or cells: human packed platelets, washed, broken by freeze-thaw; membrane pellet
The experiment in a line: Human Platelet Receptor Binding (inhibition of specific binding of [^3 H]PAF to human platelet membrane preparation). As to conditions: 0.5 h, 0.75 nM [^3 H]PAF, human platelet membranes, read-out: Human Platelet Receptor, % @ 10 μM (percent displacement). Here is the method: Assay B: Human Platelet Receptor Binding
Compounds of the invention were evaluated for their ability to inhibit specific binding of [^3 H]PAF to human platelet membrane preparation. Human packed platelets were obtained from Lifesource, Inc. (Glenview, Ill.) and washed 3 times with 10 mM Trizma pH 7.0, 2 mM EDTA (dipotassium salt), 150 mM KCl and then once with 10 mM Trizma 7.4, 20 mM CaCl2. The platelets were broken by freezing in a dry ice-ethanol bath, followed by thawing in 24° C. water baths. The preparation was centrifuged (40,000 x g, 20 minutes, […]) and the pellet suspended in 10 mM Trizma 7.4, 20 mM CaCl2, 5 mg/ml human albumin. Protein concentration in the platelet membrane preparation was determined by the Lowry method [O. H. Lowry et al., J. Biol. Chem., 193, 265-275 (1951)]. Aliquots of the membrane preparation were stored at -70° C. Each preparation was characterized for PAF receptor number and dissociation constant (Kd). In binding assays 5 μl of test compound, solubilized in DMSO, was added to polypropylene tubes along with 0.75 nM [^3 H]PAF and 200 mcl [[…]] of membranes and 95 μl 10 mM Trizma 7.4, 20 mM CaCl2, 5 mg/ml human albumin. Tubes were incubated for 30 minutes at 24° C. The incubation was terminated by adding 4 ml of ice-cold 10 mM Trizma pH 7.4, 20 mM CaCl2 and 20 mg/ml BSA prior to vacuum filtration using Whatman GF/C filters. Filters were prepared and counted in a scintillation counter. All DPM values (disintergrations per minute) were-corrected for background and isotope decay. Triplicate determinations for single doses were averaged. […] The IC50 values for the compounds of the invention were determined by the Allfit program using percent displacement data. (Allfit is a `basic` computer program for simultaneous curve fitting of a family of signoidal dose-response curves using the four parameter logistic equation.) Results are shown in Table I. In Table 1 "N.D." means not determined; "c-pent" means cyclopentyl; "c-hex" means cyclohexyl; "i-Pr" means isopropyl; "Me" means methyl; and "OMe" means methoxy.

T1 sequence (P25105 whole entry): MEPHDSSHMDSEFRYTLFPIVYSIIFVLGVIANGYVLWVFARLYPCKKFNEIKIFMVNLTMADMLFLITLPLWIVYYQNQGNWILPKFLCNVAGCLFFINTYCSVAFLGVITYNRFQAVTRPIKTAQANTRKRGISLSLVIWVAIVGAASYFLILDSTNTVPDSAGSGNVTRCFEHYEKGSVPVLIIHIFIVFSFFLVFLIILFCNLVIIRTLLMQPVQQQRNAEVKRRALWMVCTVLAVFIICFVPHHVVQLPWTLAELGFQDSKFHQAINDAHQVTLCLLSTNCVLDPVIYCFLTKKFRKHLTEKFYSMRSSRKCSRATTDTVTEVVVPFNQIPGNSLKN

For `COc1cc(Cn2cnc3ncncc32)ccc1C(=O)N(C(C)C)C1CCCCC1` [Example 2B, N-cyclohexyl-2-methoxy-N-(1-methylethyl)-4-(7H-purin-7-ylmethyl)benzamide], the inhibition at 10 µM was found to be 44%.

Turning to `COc1cc(Cn2cnc3ncnc-3c2)ccc1C(=O)N(C(C)C)C1CCCCC1` [Example 7, N-cyclohexyl-2-methoxy-N-(1-methylethyl)-4-(1H-purin-1-ylmethyl)benzamide], the inhibition at 10 µM was 40%.

Regarding `CC(C)N(C(=O)c1ccc(Cn2cnc3ncnc-3c2)cc1)C1CCCCC1` [Example 8, N-cyclohexyl-N-(1-methylethyl)-4-(1H-purin-1-ylmethyl)benzamide], the inhibition at 10 µM came out at 19%.

The record behind these values is US5861403A, “Purinylalkyl benzamide derivatives” (G. D. Searle & Co., priority 1996, dated 1999).
